Data taken from US8835462B2, “Macrocyclic picolinamides as fungicides” (Dow AgroSciences LLC, priority 2012, dated 2014).
Like-named read-outs stand apart in the source and are kept apart here.

Legend:
Assay type in all cases: in vivo
Puccinia triticina = assay: Wheat brown rust (PUCCRT) fungicidal activity on wheat seedlings
Protocol: Technical grades of materials were dissolved in acetone, which were then mixed with nine volumes of water containing 110 ppm Triton X-100. The fungicide solutions were applied onto wheat seedlings using an automated booth sprayer to run-off. All sprayed plants were allowed to air dry prior to further handling. Wheat plants (variety Yuma) were grown from seed in a greenhouse in 50% mineral soil/50% soil-less Metro mix until the first leaf was fully emerged, with 7-10 seedlings per pot. These plants were inoculated with an aqueous spore suspension of Septoria tritici either prior to or after fungicide treatments. After inoculation the plants were kept in 100% relative humidity (one day in a dark dew chamber followed by two to three days in a lighted dew chamber at 20° C.) to permit spores to germinate and infect the leaf. The plants were then transferred to a greenhouse set at 20° C. for disease to develop. When disease symptoms were fully expressed on the 1st leaves of untreated plants, infection levels were assessed on a scale of 0 to 100 percent disease severity. Percent disease control was calculated using the ratio of disease severity on treated plants relative to untreated plants. Evaluation of Fungicidal Activity: Wheat Brown Rust (Puccinia triticina; Synonym: Puccinia recondita f. sp. tritici; Bayer Code PUCCRT) Wheat plants (variety Yuma) were grown from seed in a greenhouse in 50% mineral soil/50% soil-less Metro mix until the first leaf was fully emerged, with 7-10 seedlings per pot. These plants were inoculated with an aqueous spore suspension of Puccinia triticina either prior to or after fungicide treatments. After inoculation the plants were kept in a dark dew room at 22° C. with 100% relative humidity overnight to permit spores to germinate and infect the leaf. The plants were then transferred to a greenhouse set at 24° C. for disease to develop. Fungicide formulation, application and disease assessment followed the procedures as described in the Example A.

Venturia inaequalis = assay: Apple scab (VENTIN) fungicidal activity; conditions: 24 h, 1 Day Protectant, read-out: Disease Control VENTIN 1DP
Protocol: Technical grades of materials were dissolved in acetone, which were then mixed with nine volumes of water containing 110 ppm Triton X-100. The fungicide solutions were applied onto wheat seedlings using an automated booth sprayer to run-off. All sprayed plants were allowed to air dry prior to further handling. Wheat plants (variety Yuma) were grown from seed in a greenhouse in 50% mineral soil/50% soil-less Metro mix until the first leaf was fully emerged, with 7-10 seedlings per pot. These plants were inoculated with an aqueous spore suspension of Septoria tritici either prior to or after fungicide treatments. After inoculation the plants were kept in 100% relative humidity (one day in a dark dew chamber followed by two to three days in a lighted dew chamber at 20° C.) to permit spores to germinate and infect the leaf. The plants were then transferred to a greenhouse set at 20° C. for disease to develop. When disease symptoms were fully expressed on the 1st leaves of untreated plants, infection levels were assessed on a scale of 0 to 100 percent disease severity. Percent disease control was calculated using the ratio of disease severity on treated plants relative to untreated plants. Evaluation of Fungicidal Activity: Apple Scab (Venturia Inaequalis; Bayer Code […]) Apple seedlings (variety McIntosh) were grown in soil-less Metro mix, with one plant per pot. Seedlings with two expanding young leaves at the top (older leaves at bottom of the plants were trimmed) were used in the test. Plants were inoculated with a spore suspension of Venturia inaequalis 24 hr after fungicide treatment and kept in a 22° C. dew chamber with 100% RH for 48 hr, and then moved to a greenhouse set at 20° C. for disease to develop. Fungicide formulation, application and disease assessment on the sprayed leaves followed the procedures as described in the Example A.

[1] = system: Magnaporthe grisea; Anamorph: Pyricularia oryzae; assay: whole plant or invertebrate; conditions: 24 h, read-out: Disease Control PYRIOR 1DP
Alternaria solani = assay: Tomato early blight (ALTESO) fungicidal activity; conditions: 24 h, 1 Day Protectant, read-out: Disease Control ALTESO 1DP
Protocol: Technical grades of materials were dissolved in acetone, which were then mixed with nine volumes of water containing 110 ppm Triton X-100. The fungicide solutions were applied onto wheat seedlings using an automated booth sprayer to run-off. All sprayed plants were allowed to air dry prior to further handling. Wheat plants (variety Yuma) were grown from seed in a greenhouse in 50% mineral soil/50% soil-less Metro mix until the first leaf was fully emerged, with 7-10 seedlings per pot. These plants were inoculated with an aqueous spore suspension of Septoria tritici either prior to or after fungicide treatments. After inoculation the plants were kept in 100% relative humidity (one day in a dark dew chamber followed by two to three days in a lighted dew chamber at 20° C.) to permit spores to germinate and infect the leaf. The plants were then transferred to a greenhouse set at 20° C. for disease to develop. When disease symptoms were fully expressed on the 1st leaves of untreated plants, infection levels were assessed on a scale of 0 to 100 percent disease severity. Percent disease control was calculated using the ratio of disease severity on treated plants relative to untreated plants. Evaluation of Fungicidal Activity: Tomato Early Blight (Alternaria Solani; Bayer Code […]) Tomato plants (variety Outdoor girl) were propagated in soil-less Metro mix, with each pot having one plant, and used when 12 to 14 days old. Test plants were inoculated with an aqueous spore suspension of Alternaria solani 24 hr after fungicide treatments. After inoculation the plants were kept in 100% relative humidity (one day in a dark dew chamber followed by two to three days in a lighted dew chamber at 20° C.) to permit spores to germinate and infect the leaf. The plants were then transferred to a growth room at 22° C. for disease to develop. Fungicide formulation, application and disease assessment on the sprayed leaves followed the procedures as described in the Example A.

[2] = 24 h, 1 Day Protectant, read-out: Disease Control PUCCRT 1 DP
[3] = 72 h, 3 Day Curative, read-out: Disease Control PUCCRT 3 DC

Structure (SMILES)	pest or weed control at 100 ppm (Puccinia triticina; [2])	pest or weed control at 100 ppm (Puccinia triticina; [3])	pest or weed control at 100 ppm (Venturia inaequalis)	pest or weed control at 100 ppm [1]	pest or weed control at 100 ppm (Alternaria solani)
COc1ccnc(C(=O)N[C@H]2COC[C@H](Cc3ccccc3)[C@@H](OCCCC(F)(F)F)[C@H](C)OC2=O)c1OCOC(C)=O [Compound 23]	80 to 100%	80 to 100%	0 to 80%	80 to 100%	80 to 100%
CCCCCO[C@@H]1[C@@H](Cc2ccccc2)COC[C@H](NC(=O)c2nccc(OC)c2OCOC(C)=O)C(=O)O[C@H]1C [Compound 26]	80 to 100%	80 to 100%	80 to 100%	80 to 100%	80 to 100%
COc1ccnc(C(=O)N[C@H]2COC[C@H](Cc3ccccc3)[C@@H](OCCCc3ccccc3)[C@H](C)OC2=O)c1OCOC(C)=O [Compound 34]	80 to 100%	80 to 100%	80 to 100%	80 to 100%	80 to 100%
COC(=O)/C=C/O[C@@H]1[C@@H](Cc2ccccc2)COC[C@H](NC(=O)c2nccc(OC)c2OCOC(C)=O)C(=O)O[C@H]1C [Compound 36]	80 to 100%	80 to 100%	0 to 80%	80 to 100%	0 to 80%
COc1ccnc(C(=O)N[C@H]2COC[C@H](Cc3ccccc3)[C@@H](OC(=O)c3ccccc3)[C@H](C)OC2=O)c1OCOC(C)=O [Compound 37]	80 to 100%	80 to 100%	0 to 80%	80 to 100%	80 to 100%
COc1ccnc(C(=O)N[C@H]2COC[C@H](Cc3ccccc3)[C@@H](OC(=O)C3CC3)[C@H](C)OC2=O)c1OCOC(C)=O [Compound 38]	80 to 100%	80 to 100%	0 to 80%	80 to 100%	80 to 100%
COc1ccnc(C(=O)N[C@H]2COC[C@H](Cc3ccccc3)[C@@H](OC)[C@H](C)OC2=O)c1OCOC(C)=O [Compound 39]	80 to 100%	80 to 100%	0 to 80%	80 to 100%	0 to 80%
COc1ccnc(C(=O)N[C@H]2COC[C@H](Cc3ccccc3)[C@@H](Oc3ccccc3)[C@H](C)OC2=O)c1OCOC(C)=O [Compound 40]	80 to 100%	80 to 100%	80 to 100%	80 to 100%	80 to 100%
COc1ccnc(C(=O)N[C@H]2COC[C@H](Cc3ccccc3)[C@@H](OC3CCCC3)[C@H](C)OC2=O)c1OCOC(C)=O [Compound 106]	80 to 100%	80 to 100%	–	–	0 to 80%
